According to ChEMBL document CHEMBL1201862, “PubChem BioAssay data set” (2004):
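In this assay, cells in 96-well plates receive the compound at five concentrations for 48 hours. Endpoints are linearly interpolated between the surrounding concentrations. GI50 is the concentration that inhibits growth by half.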 The source made the active and inactive calls. No stated cut-off is given here; in the data, active = GI50 up to about 1.1 µM and inactive = higher.

Experiments:
Assay in all cases: DTP human tumour cell line panel, 48 h
[1] = system: SN12C
[2] = system: A498
[3] = system: NCI-H460
[4] = system: OVCAR-3
[5] = system: NCI-H522
[6] = system: TK-10
[7] = system: CAKI-1
[8] = system: 786-0
[9] = system: ACHN
[10] = system: HOP-62
[11] = system: OVCAR-4
[12] = system: LOX IMVI
[13] = system: A549
[14] = system: RPMI-8226
[15] = system: SNB-75
[16] = system: SF-268
[17] = system: DLD-1
[18] = system: SNB-78
[19] = system: UACC-257
[20] = system: Malme-3M
[21] = system: NCI-H226
[22] = system: M19-MEL
[23] = system: HT-29
[24] = system: M14
[25] = system: LXFL 529
[26] = system: OVCAR-5
[27] = system: K562
[28] = system: KM-20L2
[29] = system: NCI-H23
[30] = system: KM12
[31] = system: OVCAR-8
[32] = system: COLO 205
[33] = system: SK-OV-3
[34] = system: SF-539
[35] = system: RXF 631
[36] = system: MOLT-4
[37] = system: HOP-92
[38] = system: SK-MEL-5
[39] = system: SF-295
[40] = system: SK-MEL-28
[41] = system: HL-60
[42] = system: SK-MEL-2
[43] = system: XF498
[44] = system: HCC 2998
[45] = system: UO-31
[46] = system: IGROV-1
[47] = system: SW-620
[48] = system: CCRF-CEM
[49] = system: RXF 393
[50] = system: SNB-19
[51] = system: DMS-114
[52] = system: U-251
[53] = system: EKVX
[54] = system: SR
[55] = system: DMS-273
[56] = system: UACC-62
[57] = system: HCT-15
[58] = system: HCT-116
[59] = system: HOP-18

CCOc1ccc(NC(=O)C2=C(C)NC(C)=C(C(=O)Nc3ccc(OCC)cc3)C2c2ccc(O)c(OC)c2)cc1
GI50 [1]: 86.3 µM (inactive)
GI50 [2]: 19.3 µM (inactive)
GI50 [3]: 80.4 µM (inactive)
GI50 [4]: > 100 µM (inactive)
GI50 [5]: 56.6 µM (inactive)
GI50 [6]: > 100 µM (inactive)
GI50 [7]: > 100 µM (inactive)
GI50 [8]: 48.9 µM (inactive)
GI50 [9]: 55.1 µM (inactive)
GI50 [10]: 29.5 µM (inactive)
GI50 [11]: 36.9 µM (inactive)
GI50 [12]: > 100 µM (inactive)
GI50 [13]: > 100 µM (inactive)
GI50 [14]: 28.6 µM (inactive)
GI50 [15]: 14.3 µM (inactive)
GI50 [16]: > 100 µM (inactive)
GI50 [17]: 96.2 µM (inactive)
GI50 [18]: 44.1 µM (inactive)
GI50 [19]: 47.8 µM (inactive)
GI50 [20]: 64.1 µM (inactive)
GI50 [21]: 40.3 µM (inactive)
GI50 [22]: > 100 µM (inactive)
GI50 [23]: > 100 µM (inactive)
GI50 [24]: > 100 µM (inactive)
GI50 [25]: 67.3 µM (inactive)
GI50 [26]: > 100 µM (inactive)
GI50 [27]: 40.8 µM (inactive)
GI50 [28]: > 100 µM (inactive)
GI50 [29]: > 100 µM (inactive)
GI50 [30]: 47.9 µM (inactive)
GI50 [31]: 87.3 µM (inactive)
GI50 [32]: 96.8 µM (inactive)
GI50 [33]: > 100 µM (inactive)
GI50 [34]: 28.8 µM (inactive)
GI50 [35]: 53.5 µM (inactive)
GI50 [36]: 28.1 µM (inactive)
GI50 [37]: 20.4 µM (inactive)
GI50 [38]: 46 µM (inactive)
GI50 [39]: 54.7 µM (inactive)
GI50 [40]: 53.2 µM (inactive)
GI50 [41]: 42.7 µM (inactive)
GI50 [42]: 64.6 µM (inactive)
GI50 [43]: 18.5 µM (inactive)
GI50 [44]: 2.35 µM (inactive)
GI50 [45]: 52.4 µM (inactive)
GI50 [46]: > 100 µM (inactive)
GI50 [47]: > 100 µM (inactive)
GI50 [48]: 46.9 µM (inactive)
GI50 [49]: 28.9 µM (inactive)
GI50 [50]: > 100 µM (inactive)
GI50 [51]: 56.5 µM (inactive)
GI50 [52]: 55.6 µM (inactive)
GI50 [53]: > 100 µM (inactive)

CN(C)CCCSc1c2ccccc2nc2cc(NCC(=O)Nc3ccccc3-c3ccccc3NC(=O)CNc3ccc4c(SCCCN(C)C)c5ccccc5nc4c3)ccc12
GI50 [1]: > 100 µM (inactive)
GI50 [2]: > 100 µM (inactive)
GI50 [3]: > 100 µM (inactive)
GI50 [54]: > 100 µM (inactive)
GI50 [4]: > 100 µM (inactive)
GI50 [55]: > 100 µM (inactive)
GI50 [5]: > 100 µM (inactive)
GI50 [6]: > 100 µM (inactive)
GI50 [7]: > 100 µM (inactive)
GI50 [8]: > 100 µM (inactive)
GI50 [9]: > 100 µM (inactive)
GI50 [10]: > 100 µM (inactive)
GI50 [11]: > 100 µM (inactive)
GI50 [12]: > 100 µM (inactive)
GI50 [56]: > 100 µM (inactive)
GI50 [13]: > 100 µM (inactive)
GI50 [14]: 65 µM (inactive)
GI50 [15]: > 100 µM (inactive)
GI50 [16]: > 100 µM (inactive)
GI50 [17]: > 100 µM (inactive)
GI50 [18]: > 100 µM (inactive)
GI50 [19]: > 100 µM (inactive)
GI50 [20]: 59.4 µM (inactive)
GI50 [21]: > 100 µM (inactive)
GI50 [22]: 49.7 µM (inactive)
GI50 [23]: > 100 µM (inactive)
GI50 [24]: > 100 µM (inactive)
GI50 [25]: > 100 µM (inactive)
GI50 [26]: > 100 µM (inactive)
GI50 [27]: 71.4 µM (inactive)
GI50 [28]: > 100 µM (inactive)
GI50 [29]: > 100 µM (inactive)
GI50 [30]: 84.3 µM (inactive)
GI50 [31]: > 100 µM (inactive)
GI50 [32]: 45.1 µM (inactive)
GI50 [33]: > 100 µM (inactive)
GI50 [34]: > 100 µM (inactive)
GI50 [36]: 26.5 µM (inactive)
GI50 [37]: > 100 µM (inactive)
GI50 [38]: > 100 µM (inactive)
GI50 [39]: > 100 µM (inactive)
GI50 [40]: > 100 µM (inactive)
GI50 [41]: 18.3 µM (inactive)
GI50 [42]: > 100 µM (inactive)
GI50 [43]: 71.8 µM (inactive)
GI50 [44]: > 100 µM (inactive)
GI50 [45]: > 100 µM (inactive)
GI50 [46]: > 100 µM (inactive)
GI50 [47]: > 100 µM (inactive)
GI50 [48]: 25.3 µM (inactive)
GI50 [49]: > 100 µM (inactive)
GI50 [57]: > 100 µM
GI50 [58]: > 100 µM (inactive)
GI50 [50]: > 100 µM (inactive)
GI50 [59]: > 100 µM (inactive)
GI50 [51]: > 100 µM (inactive)
GI50 [52]: > 100 µM (inactive)
GI50 [53]: > 100 µM (inactive)

CCN(CC)CCSc1nc2cccc([N+](=O)[O-])c2[nH]1
GI50 [1]: > 100 µM (inactive)
GI50 [4]: > 100 µM (inactive)
GI50 [55]: > 100 µM (inactive)
GI50 [5]: > 100 µM (inactive)
GI50 [6]: > 100 µM (inactive)
GI50 [7]: > 100 µM (inactive)
GI50 [11]: > 100 µM (inactive)
GI50 [12]: > 100 µM (inactive)
GI50 [56]: > 100 µM (inactive)
GI50 [13]: > 100 µM (inactive)
GI50 [14]: > 100 µM (inactive)
GI50 [15]: > 100 µM (inactive)
GI50 [18]: > 100 µM (inactive)
GI50 [19]: > 100 µM (inactive)
GI50 [21]: > 100 µM (inactive)
GI50 [22]: > 100 µM (inactive)
GI50 [23]: > 100 µM (inactive)
GI50 [24]: > 100 µM (inactive)
GI50 [25]: > 100 µM (inactive)
GI50 [27]: > 100 µM (inactive)
GI50 [29]: > 100 µM (inactive)
GI50 [30]: > 100 µM (inactive)
GI50 [31]: > 100 µM (inactive)
GI50 [32]: > 100 µM (inactive)
GI50 [33]: > 100 µM (inactive)
GI50 [34]: > 100 µM (inactive)
GI50 [35]: > 100 µM (inactive)
GI50 [36]: > 100 µM (inactive)
GI50 [37]: 33.4 µM (inactive)
GI50 [38]: > 100 µM (inactive)
GI50 [40]: > 100 µM (inactive)
GI50 [41]: > 100 µM (inactive)
GI50 [43]: > 100 µM (inactive)
GI50 [44]: > 100 µM (inactive)
GI50 [46]: > 100 µM (inactive)
GI50 [47]: > 100 µM (inactive)
GI50 [48]: > 100 µM (inactive)
GI50 [49]: > 100 µM (inactive)
GI50 [57]: > 100 µM
GI50 [51]: > 100 µM (inactive)
GI50 [53]: > 100 µM (inactive)

Cn1cnc2nc(Cl)nc(NC(C)(C)C(C)(C)O)c21
GI50 [1]: > 100 µM (inactive)
GI50 [2]: > 100 µM (inactive)
GI50 [3]: > 100 µM (inactive)
GI50 [54]: > 100 µM (inactive)
GI50 [4]: > 100 µM (inactive)
GI50 [55]: > 100 µM (inactive)
GI50 [5]: 72.4 µM (inactive)
GI50 [6]: > 100 µM (inactive)
GI50 [7]: > 100 µM (inactive)
GI50 [8]: > 100 µM (inactive)
GI50 [9]: > 100 µM (inactive)
GI50 [10]: > 100 µM (inactive)
GI50 [11]: > 100 µM (inactive)
GI50 [56]: > 100 µM (inactive)
GI50 [13]: > 100 µM (inactive)
GI50 [14]: > 100 µM (inactive)
GI50 [15]: > 100 µM (inactive)
GI50 [16]: > 100 µM (inactive)
GI50 [17]: > 100 µM (inactive)
GI50 [18]: > 100 µM (inactive)
GI50 [19]: > 100 µM (inactive)
GI50 [20]: > 100 µM (inactive)
GI50 [21]: > 100 µM (inactive)
GI50 [23]: > 100 µM (inactive)
GI50 [24]: > 100 µM (inactive)
GI50 [26]: > 100 µM (inactive)
GI50 [27]: > 100 µM (inactive)
GI50 [28]: > 100 µM (inactive)
GI50 [29]: > 100 µM (inactive)
GI50 [30]: > 100 µM (inactive)
GI50 [31]: > 100 µM (inactive)
GI50 [32]: > 100 µM (inactive)
GI50 [33]: > 100 µM (inactive)
GI50 [34]: > 100 µM (inactive)
GI50 [36]: > 100 µM (inactive)
GI50 [37]: > 100 µM (inactive)
GI50 [38]: > 100 µM (inactive)
GI50 [39]: > 100 µM (inactive)
GI50 [41]: > 100 µM (inactive)
GI50 [42]: > 100 µM (inactive)
GI50 [43]: > 100 µM (inactive)
GI50 [44]: > 100 µM (inactive)
GI50 [45]: > 100 µM (inactive)
GI50 [46]: > 100 µM (inactive)
GI50 [47]: > 100 µM (inactive)
GI50 [48]: > 100 µM (inactive)
GI50 [49]: > 100 µM (inactive)
GI50 [57]: > 100 µM
GI50 [58]: > 100 µM (inactive)
GI50 [50]: > 100 µM (inactive)
GI50 [59]: > 100 µM (inactive)
GI50 [51]: > 100 µM (inactive)
GI50 [52]: > 100 µM (inactive)
GI50 [53]: > 100 µM (inactive)
